Target: HCV RdRp (NS5B) (UniProt P26663)
Type: biochemical, hepatitis C virus

Sequence of HCV RdRp (NS5B) (P26663 whole entry, looked up): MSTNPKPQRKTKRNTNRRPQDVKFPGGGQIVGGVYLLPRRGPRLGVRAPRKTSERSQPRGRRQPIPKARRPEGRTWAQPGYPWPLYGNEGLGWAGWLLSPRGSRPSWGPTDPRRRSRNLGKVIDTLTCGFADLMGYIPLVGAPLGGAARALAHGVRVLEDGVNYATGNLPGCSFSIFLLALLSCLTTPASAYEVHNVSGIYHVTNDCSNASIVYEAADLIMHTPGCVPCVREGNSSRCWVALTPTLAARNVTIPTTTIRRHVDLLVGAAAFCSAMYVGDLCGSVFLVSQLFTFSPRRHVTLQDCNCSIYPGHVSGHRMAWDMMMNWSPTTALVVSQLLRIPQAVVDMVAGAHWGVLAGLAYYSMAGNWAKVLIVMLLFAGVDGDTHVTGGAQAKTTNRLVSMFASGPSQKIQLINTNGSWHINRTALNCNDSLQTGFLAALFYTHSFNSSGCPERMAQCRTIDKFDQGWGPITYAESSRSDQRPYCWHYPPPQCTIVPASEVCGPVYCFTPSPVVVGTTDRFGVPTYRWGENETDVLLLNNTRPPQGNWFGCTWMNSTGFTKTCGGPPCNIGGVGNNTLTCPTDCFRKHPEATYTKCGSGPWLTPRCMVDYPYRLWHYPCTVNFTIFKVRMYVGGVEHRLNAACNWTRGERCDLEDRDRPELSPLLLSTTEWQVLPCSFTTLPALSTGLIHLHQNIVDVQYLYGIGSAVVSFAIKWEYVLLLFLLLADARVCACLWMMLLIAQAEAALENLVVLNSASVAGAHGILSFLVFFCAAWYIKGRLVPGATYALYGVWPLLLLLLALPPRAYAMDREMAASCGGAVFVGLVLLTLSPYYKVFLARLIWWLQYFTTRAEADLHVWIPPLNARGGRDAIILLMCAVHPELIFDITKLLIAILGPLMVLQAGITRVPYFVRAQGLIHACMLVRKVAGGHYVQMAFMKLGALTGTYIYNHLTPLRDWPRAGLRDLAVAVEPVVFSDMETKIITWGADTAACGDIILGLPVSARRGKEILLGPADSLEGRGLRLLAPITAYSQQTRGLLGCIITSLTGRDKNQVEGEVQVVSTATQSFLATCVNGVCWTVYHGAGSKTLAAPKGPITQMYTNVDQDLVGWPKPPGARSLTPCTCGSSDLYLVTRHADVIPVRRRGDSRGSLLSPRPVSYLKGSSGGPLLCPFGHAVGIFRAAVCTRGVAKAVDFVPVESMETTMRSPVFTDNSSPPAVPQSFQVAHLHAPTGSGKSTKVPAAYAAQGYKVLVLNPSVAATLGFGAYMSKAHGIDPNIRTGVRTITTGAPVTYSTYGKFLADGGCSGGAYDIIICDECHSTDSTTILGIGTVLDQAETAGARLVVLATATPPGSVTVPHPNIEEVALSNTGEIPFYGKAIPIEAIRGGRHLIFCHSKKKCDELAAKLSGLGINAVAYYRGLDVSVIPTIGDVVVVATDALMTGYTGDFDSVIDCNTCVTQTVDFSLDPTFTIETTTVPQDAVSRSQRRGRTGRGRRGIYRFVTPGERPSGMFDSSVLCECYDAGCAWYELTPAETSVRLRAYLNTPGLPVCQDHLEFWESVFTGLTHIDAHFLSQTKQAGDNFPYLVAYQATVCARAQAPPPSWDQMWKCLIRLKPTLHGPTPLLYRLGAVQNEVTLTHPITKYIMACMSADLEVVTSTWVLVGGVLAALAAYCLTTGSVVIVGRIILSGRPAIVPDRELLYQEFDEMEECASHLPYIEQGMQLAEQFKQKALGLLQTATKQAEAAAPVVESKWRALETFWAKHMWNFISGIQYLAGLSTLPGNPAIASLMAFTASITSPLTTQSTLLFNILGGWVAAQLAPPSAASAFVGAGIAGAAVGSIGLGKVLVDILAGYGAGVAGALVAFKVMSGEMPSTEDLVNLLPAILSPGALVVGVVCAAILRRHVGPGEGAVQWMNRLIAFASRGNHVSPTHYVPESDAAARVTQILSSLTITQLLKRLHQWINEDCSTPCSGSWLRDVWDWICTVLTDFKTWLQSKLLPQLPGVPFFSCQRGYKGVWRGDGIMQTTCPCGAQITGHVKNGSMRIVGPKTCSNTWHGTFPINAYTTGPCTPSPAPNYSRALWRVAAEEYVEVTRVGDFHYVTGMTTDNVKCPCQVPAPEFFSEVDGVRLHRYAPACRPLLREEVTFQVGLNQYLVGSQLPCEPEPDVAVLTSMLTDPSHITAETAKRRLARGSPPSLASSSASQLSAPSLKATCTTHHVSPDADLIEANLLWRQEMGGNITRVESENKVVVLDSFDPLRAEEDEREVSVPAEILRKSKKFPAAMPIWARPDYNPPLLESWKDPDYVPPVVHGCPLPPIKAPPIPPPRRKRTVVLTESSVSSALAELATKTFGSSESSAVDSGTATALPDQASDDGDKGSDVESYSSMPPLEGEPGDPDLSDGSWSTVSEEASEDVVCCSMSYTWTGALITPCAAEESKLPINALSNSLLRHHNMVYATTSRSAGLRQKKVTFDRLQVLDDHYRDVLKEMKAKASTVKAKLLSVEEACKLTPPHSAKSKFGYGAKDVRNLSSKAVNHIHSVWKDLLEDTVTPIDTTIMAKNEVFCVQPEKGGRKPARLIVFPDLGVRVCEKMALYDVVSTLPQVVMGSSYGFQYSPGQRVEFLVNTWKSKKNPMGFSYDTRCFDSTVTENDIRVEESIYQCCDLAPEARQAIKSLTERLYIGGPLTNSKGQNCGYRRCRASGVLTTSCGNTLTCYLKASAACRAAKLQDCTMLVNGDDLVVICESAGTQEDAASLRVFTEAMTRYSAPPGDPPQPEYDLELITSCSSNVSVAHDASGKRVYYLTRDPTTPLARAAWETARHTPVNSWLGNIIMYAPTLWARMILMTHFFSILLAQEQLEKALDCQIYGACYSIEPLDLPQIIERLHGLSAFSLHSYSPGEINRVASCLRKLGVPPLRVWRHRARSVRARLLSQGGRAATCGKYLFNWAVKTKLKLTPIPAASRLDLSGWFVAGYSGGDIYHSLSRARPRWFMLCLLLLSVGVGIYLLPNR

Row | Structure (SMILES) | IC50
1 | CC(C)(C)c1ccc(NC(=O)[C@H](Cc2ccc(CN)cc2)NC(=O)Nc2ccc(OCc3ccccc3)cc2)cc1 [Compound 174, (S)-3-(4-AMINOMETHYL-PHENYL)-2-[3-(4-BENZYLOXY-PHENYL)-UREIDO]-N-(4-TERT-BUTYL-PHENYL)-PROPIONAMIDE] | < 10 µM
2 | Cc1ccc(NC(=O)C(CCCC(=O)O)NC(=O)OCC2c3ccccc3-c3ccccc32)cc1 [Compound 402, (S)-5-(9H-FLUOREN-9-YLMETHOXYCARBONYLAMINO)-5-P-TOLYLCARBAMOYL-PENTANOIC ACID] | > 50 µM
3 | Cc1ccc(NC(=O)C2(NC(=O)OCC3c4ccccc4-c4ccccc43)CCCNC2)cc1 (stereo not shown) [Compound 109, (3-P-TOLYLCARBAMOYL-PIPERIDIN-3-YL)-CARBAMIC ACID 9H-FLUOREN-9-YLMETHYL ESTER] | > 50 µM
4 | Cc1ccc(NC(=O)[C@H](CCCCN)NC(=O)Nc2ccc(NCc3ccccc3)cc2)cc1 [Compound 224, (S)-6-AMINO-2-[3-(4-BENZYLAMINO-PHENYL)-UREIDO]-HEXANOIC ACID P-TOLYLAMIDE] | 10 to 50 µM
5 | Cc1ccc(NC(=O)C(Cc2cnc[nH]2)NC(=O)OCC2c3ccccc3-c3ccccc32)cc1 [Compound 384, (R)-[2-(3H-IMIDAZOL-4-YL)-1-P-TOLYLCARBAMOYL-ETHYL]-CARBAMIC ACID 9H-FLUOREN-9-YLMETHYL ESTER] | > 50 µM
6 | Cc1ccc(NC(=O)C(CNC(=O)CCN)NC(=O)OCC2c3ccccc3-c3ccccc32)cc1 [Compound 178, (S)-[2-(3-AMINO-PROPIONYLAMINO)-1-P-TOLYLCARBAMOYL-ETHYL]-CARBAMIC ACID 9H-FLUOREN-9-YLMETHYL ESTER] | 10 to 50 µM
7 | NCCCCC(NC(=O)OCC1c2ccccc2-c2ccccc21)C(=O)NC1CCCCC1 (stereo in doubt) [Compound 22, (S)-(5-AMINO-1-CYCLOHEXYLCARBAMOYL-PENTYL)-CARBAMIC ACID 9H-FLUOREN-9-YLMETHYL ESTER] | 10 to 50 µM
8 | Cc1ccc(NC(=O)C(CCCCN)NC(=O)Nc2cccc(Cc3ccccc3)c2)cc1 [Compound 212, (S)-6-AMINO-2-[3-(3-BENZYL-PHENYL)-UREIDO]-HEXANOIC ACID P-TOLYLAMIDE] | 10 to 50 µM
9 | Cc1cc2cc(NC(=O)CN(CCCCN)C(=O)OCC3c4ccccc4-c4ccccc43)ccc2[nH]1 [Compound 295, (4-AMINO-BUTYL)-[(2-METHYL-1H-INDOL-5-YLCARBAMOYL)-METHYL]-CARBAMIC ACID 9H-FLUOREN-9-YLMETHYL ESTER] | < 10 µM
10 | Cc1ccc(NC(=O)C(CCCCN)NC(=O)NC(C)c2cccc3ccccc23)cc1 [Compound 96, (R,S)-6-AMINO-2-[3-(1-NAPHTHALEN-1-YL-ETHYL)-UREIDO]-HEXANOIC ACID P-TOLYLAMIDE] | > 50 µM
11 | Cc1ccc(NC(=O)[C@H](CCCCN)NS(=O)(=O)c2ccc3ccccc3c2)cc1 [Compound 69, (S)-6-AMINO-2-(NAPHTHALENE-2-SULFONYLAMINO)-HEXANOIC ACID P-TOLYLAMIDE] | > 50 µM
12 | Cc1ccc(NC(=O)C2CC(O)CN2C(=O)OCC2c3ccccc3-c3ccccc32)cc1 [Compound 87, (4R,S)-4-HYDROXY-2-P-TOLYLCARBAMOYL-PYRROLIDINE-1-CARBOXYLIC ACID 9H-FLUOREN-9-YLMETHYL ESTER] | > 50 µM
13 | Cc1ccc(NC(=O)C(CCCCN)NC(=O)NCCc2ccccc2)cc1 [Compound 134, (S)-6-AMINO-2-(3-PHENETHYL-UREIDO)-HEXANOIC ACID P-TOLYLAMIDE] | > 50 µM
14 | C[C@H](N)C(=O)Nc1ccc(CN(C(=O)c2ccco2)C2CCCCC2)cc1 [Compound 12, (S)-FURAN-2-CARBOXYLIC ACID [4-(2-AMINO-PROPIONYLAMINO)-BENZYL]-CYCLOHEXYL-AMIDE] | > 50 µM
15 | Cc1ccc(NC(=O)C(CCCCN)NC(=O)Nc2ccccc2-c2ccccc2)cc1 [Compound 73, (S)-6-AMINO-2-(3-BIPHENYL-2-YL-UREIDO)-HEXANOIC ACID P-TOLYLAMIDE] | > 50 µM
16 | Cc1ccc(NC(=O)[C@H](CCCCN)NC(=O)COc2ccc(F)cc2)cc1 [Compound 329, (S)-6-AMINO-2-[^2-(^4-FLUORO-PHENOXY)-ACETYLAMINO]-HEXANOIC ACID P-TOLYLAMIDE] | > 50 µM
17 | CC(=O)Nc1ccc(NC(=O)[C@H](CCCCN)NC(=O)OCC2c3ccccc3-c3ccccc32)cc1 [Compound 230, (S)-[1-(4-ACETYLAMINO-PHENYLCARBAMOYL)-5-AMINO-PENTYL]-CARBAMIC ACID 9H-FLUOREN-9-YLMETHYL ESTER] | > 50 µM
18 | CCCCOc1ccc(S(=O)(=O)N[C@@H](CCCCN)C(=O)Nc2ccc(C)cc2)cc1 [Compound 390, (S)-6-AMINO-2-(4-BUTOXY-BENZENESULFONYLAMINO)-HEXANOIC ACID P-TOLYLAMIDE] | > 50 µM
19 | Cc1ccc(NC(=O)[C@H](CCCCN)NS(=O)(=O)c2cccc3nonc23)cc1 [Compound 398, (S)-6-AMINO-2-(BENZO[1,2,5]OXADIAZOLE-4-SULFONYLAMINO)-HEXANOIC ACID P-TOLYLAMIDE] | > 50 µM
20 | Cc1ccc(NC(=O)[C@H](CCCCN)NC(=O)CNC2Cc3ccccc3C2)cc1 [Compound 336, (S)-6-AMINO-2-[2-(INDAN-2-YLAMINO)-ACETYLAMINO]-HEXANOIC ACID P-TOLYLAMIDE] | > 50 µM
21 | NC(Cc1ccccc1)C(=O)Nc1ccc(CN(C(=O)c2ccco2)C2CCCCC2)cc1 (stereo in doubt) [Compound 11, (R)-FURAN-2-CARBOXYLIC ACID [4-(2-AMINO-3-PHENYL-PROPIONYLAMINO)-BENZYL]-CYCLOHEXYL-AMIDE] | > 50 µM
22 | Cc1ccc(NC(=O)[C@H](CCCCN)NS(=O)(=O)c2ccc(C)cc2)cc1 [Compound 396, (S)-6-AMINO-2-(TOLUENE-4-SULFONYLAMINO)-HEXANOIC ACID P-TOLYLAMIDE] | > 50 µM
23 | Cc1cc2cc(NC(=O)[C@H](Cc3ccc(CN)cc3)NC(=O)OCC3c4ccccc4-c4ccccc43)ccc2[nH]1 [Compound 215, (S)-[2-(4-AMINOMETHYL-PHENYL)-1-(2-METHYL-1H-INDOL-5-YLCARBAMOYL)-ETHYL]-CARBAMIC ACID 9H-FLUOREN-9-YLMETHYL ESTER] | 10 to 50 µM
24 | Cc1ccc(NC(=O)C(CCCCN)NC(=O)c2ccc(C)c3ccccc23)cc1 [Compound 62, (S)-4-METHYL-NAPHTHALENE-1-CARBOXYLIC ACID (5-AMINO-1-P-TOLYLCARBAMOYL-PENTYL)-AMIDE] | > 50 µM
25 | Cc1ccc(NC(=O)C(CCCCN)NS(=O)(=O)c2ccc(C(F)(F)F)cc2)cc1 [Compound 397, (S)-6-AMINO-2-(4-TRIFLUOROMETHYL-BENZENESULFONYLAMINO)-HEXANOIC ACID P-TOLYLAMIDE] | > 50 µM
26 | Cc1ccc(NC(=O)[C@H](CCCCN)NC(=O)COc2ccc(I)cc2)cc1 [Compound 327, (S)-6-AMINO-2-[2-(4-IODO-PHENOXY)-ACETYLAMINO]-HEXANOIC ACID P-TOLYLAMIDE] | > 50 µM
27 | Cc1ccc(NC(=O)C(N)CNC(=O)OCC2c3ccccc3-c3ccccc32)cc1 [Compound 84, (R)-(2-AMINO-2-P-TOLYLCARBAMOYL-ETHYL)-CARBAMIC ACID 9H-FLUOREN-9-YLMETHYL ESTER] | > 50 µM
28 | Cc1ccc(NC(=O)C(CCCCN)NC(=O)Nc2ccc(CN(C)c3ccc([N+](=O)[O-])cc3)cc2)cc1 [Compound 251, (S)-6-AMINO-2-[3-(4-{[METHYL-(4-NITRO-PHENYL)-AMINO]-METHYL}-PHENYL)-UREIDO]-HEXANOIC ACID P-TOLYLAMIDE] | < 10 µM

— patent US20070021434A1, “NON-NUCLEOSIDE ANTI-HEPACIVIRUS AGENTS AND USES THEREOF” (Migenix Inc., priority 2005, published 2007)
